The source of these data is US11653689B2, “Probiotic Bifidobacterium breve strain and compositions comprising said strain” (Chr. Hansen A/S, priority 2018, dated 2023).

For one data set, the system named is cyclooxygenase (COX). Briefly: Serum prostaglandin E2 and thromboxane B2 by LC-MS/MS in trial subjects. It counts as in vivo, human. Particulars: fasting serum, visit 2 to 7, 300 mg aspirin daily. The protocol:
As exploratory endpoints, post-hoc intervention effects on prostaglandin E2 (PGE2) and thromboxane B2 (TBX2) in serum samples downstream of cyclooxygenase (COX) were studied.
After unblinding, a post-hoc lab analysis was performed on 2 biolipids PGE2 and TXB2 downstream from the COX enzyme in fasting serum samples obtained during visit 2 to visit 7. […] J. Chromatogr. […] Ambiotis were kept blinded for intervention during analyses and analyses were performed in single measurements.

The test system of the next data set is upper GI bleeding. The settings on record: in vivo; cited from earlier work.
Another data set has as its system Caco-2 cell layer. Particulars: cited from earlier work.
Data set [1] can be described thus: Co-incubation of DSM 32356 with acetylsalicylic acid, metabolite analysis. How it is done:
The overall aim with this experiment was to explore if Bifidobacterium breve DSM 32356 influenced the degradation of aspirin in vitro.
To cover a wide concentration range of acetylsalicylic acid the following concentrations were used: 20, 10, 5, 2.5, 1.25, 0.625, 0.3125 and 0 mM of acetylsalicylic acid.
The next day the grown culture was reinoculated in fresh MRS with 0.05% CyHCl (100 μL bacteria suspension in 10 mL MRS with 0.05% CyHCl). Six dilution rows were generated by transferring 1 mL of mixed inoculated culture to 10 mL MRS with 0.05% CyHCl. This was repeated 5 times. The bifidobacteria were cultured anaerobically overnight at 37° C. On the day of incubation with acetylsalicyl acid bacterial growth was evaluated by measuring optical density at 600 nm (OD600 nm) and cultures representing late exponential/early stationary phase were selected. […]
Nine mL of each acetylsalicylic acid solution (22.2, 11.1, 5.6, 2.8, 1.39, 0.69 and 0.35 mM) and the control condition (0 mM) were added to different sterile tubes in duplicate. […] After incubation, pH was measured in each vial and the solutions were sterile filtered and frozen at −80° C. until metabolite analysis. […]

As for `CC(=O)Oc1ccccc1C(=O)O` [acetylsalicylic acid (aspirin), acetylsalicylic acid], in the data set on cyclooxygenase (COX), the “serum PGE2 concentrations” value is “robust inhibition” and the “serum TXB2 concentrations” value was “robust inhibition”. For the same compound, the “increased risk of upper GI bleeding” value in the data set with upper GI bleeding is recorded as 2- to 4 fold. Also, in the data set on Caco-2 cell layer, the ZO-1 expression result is on record as “decreased”, the “flux of fluorescein isothiocyanate-conjugated dextran” value was “increases flux” and the “transepithelial electrical resistance (TEER)” value is “decreased”. Besides, the “conversion of acetylsalicylic acid to salicylic acid” value in data set [1] (24 hours, 37° C., with DSM 32356 or acid-adjusted to pH 4.5, MRS) was “most of the acetylsalicylic acid was converted to salicylic acid”. Also, the “growth of DSM 32356” value in data set [1] (increasing concentrations of aspirin) is on record as “inhibited bacterial growth”.
